Experimental data taken from ChEMBL document CHEMBL1201862, “PubChem BioAssay data set” (2004).
“And” between values parts separate entries of the source, which are not always exact repeats. Equal entries are not always repeated.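 Assay format: 96-well plates, 48-hour exposure. GI50 = concentration required for 50% inhibition of growth.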 The source made the active and inactive calls. No stated cut-off is given here; in the data, active = GI50 up to about 1.1 µM and inactive = higher.

How the values were obtained:
Assay in all cases: growth of human tumour cells (NCI), 48 h
SK-MEL-28 = system: SK-MEL-28
K562 = system: K562
ACHN = system: ACHN
SR = system: SR
HOP-92 = system: HOP-92
MCF7 = system: MCF7
UACC-62 = system: UACC-62
A498 = system: A498
COLO 205 = system: COLO 205
CCRF-CEM = system: CCRF-CEM
SF-295 = system: SF-295
MDA-N = system: MDA-N
Malme-3M = system: Malme-3M
LOX IMVI = system: LOX IMVI
NCI-H522 = system: NCI-H522
Hs-578T = system: Hs-578T
KM12 = system: KM12
HL-60 = system: HL-60
SNB-75 = system: SNB-75
OVCAR-8 = system: OVCAR-8

Measured: GI50

S=c1nc(Nc2ccc(Cl)cc2)c2c3c(sc2[nH]1)CCCC3
inactive: SK-MEL-28 > 100 µM | K562 38.5 µM | ACHN 74.5 µM | SR > 100 µM | HOP-92 76 µM | MCF7 90.2 µM | UACC-62 > 100 µM | A498 > 100 µM | COLO 205 > 100 µM | CCRF-CEM 36.2 µM | SF-295 > 100 µM | MDA-N > 100 µM | Malme-3M > 100 µM | LOX IMVI > 100 µM | NCI-H522 37 µM | Hs-578T > 100 µM | KM12 > 100 µM | HL-60 54 µM

COc1cc(C2SC(=N)Nc3c2c(C)nn3C(=O)Cc2ccccc2)ccc1O (configuration not stated)
inactive: SK-MEL-28 > 100 µM | K562 > 100 µM | ACHN > 100 µM | SR > 100 µM | SNB-75 26.8 µM | MCF7 > 100 µM | UACC-62 > 100 µM | A498 > 100 µM | COLO 205 > 100 µM | CCRF-CEM > 100 µM | SF-295 > 100 µM | MDA-N > 100 µM | OVCAR-8 > 100 µM | Malme-3M > 100 µM | LOX IMVI > 100 µM | NCI-H522 > 100 µM | Hs-578T > 100 µM | KM12 > 100 µM | HL-60 > 100 µM

CCOC(=O)C(NC(=O)CC)(Nc1ccc(S(=O)(=O)Nc2ncccn2)cc1)C(F)(F)F (configuration not stated)
inactive: SK-MEL-28 > 100 µM | K562 > 100 µM | ACHN > 100 µM | SR > 100 µM | SNB-75 > 100 µM | HOP-92 > 100 µM | MCF7 > 100 µM | UACC-62 > 100 µM | COLO 205 > 100 µM | CCRF-CEM > 100 µM | SF-295 > 100 µM | MDA-N > 100 µM | OVCAR-8 > 100 µM | Malme-3M > 100 µM | LOX IMVI > 100 µM | NCI-H522 > 100 µM | Hs-578T > 100 µM | KM12 > 100 µM | HL-60 > 100 µM

COc1cc(S(=O)(=O)Nc2ccc(-c3csc(/N=C\c4cccs4)n3)cc2)ccc1Cl
inactive: SK-MEL-28 35.9 µM | K562 42.9 µM | ACHN > 100 µM | SR 15.7 µM | SNB-75 30.3 µM | HOP-92 > 100 µM | MCF7 16.5 µM | UACC-62 23.3 µM | A498 31.8 µM | COLO 205 32.5 µM | CCRF-CEM 19.8 µM | SF-295 > 100 µM | MDA-N 34.4 µM | OVCAR-8 87.5 µM | Malme-3M 78 µM | LOX IMVI 36.2 µM | NCI-H522 32.4 µM | Hs-578T 68.2 µM

Clc1ccc(CN2CCCN(Cc3ccc(Cl)cc3)C2c2cc3ccccc3c3ccccc23)cc1
inactive: SK-MEL-28 22.8 µM | ACHN > 100 µM | SR 3.21 µM | SNB-75 22.4 µM | HOP-92 74 µM | MCF7 37.2 µM | UACC-62 18.7 µM | A498 19 µM | COLO 205 19.7 µM | SF-295 52.2 µM | MDA-N 37.2 µM | OVCAR-8 > 100 µM | Malme-3M 18.4 µM | LOX IMVI 36.5 µM | NCI-H522 18.9 µM | Hs-578T 24.4 µM | KM12 60.3 µM

CCOC(=O)C12C(=O)CCN1CCc1ccccc1C2C (configuration not stated)
inactive: SK-MEL-28 > 100 µM | K562 > 100 µM | ACHN > 100 µM | SR > 100 µM | HOP-92 > 100 µM | MCF7 > 100 µM | UACC-62 > 100 µM | A498 > 100 µM | COLO 205 > 100 µM | SF-295 > 100 µM | MDA-N > 100 µM | OVCAR-8 > 100 µM | Malme-3M > 100 µM | LOX IMVI > 100 µM | NCI-H522 > 100 µM | Hs-578T > 100 µM | KM12 > 100 µM | HL-60 > 100 µM

CC(C)(C)OC(=O)N(O)CCCn1cnc2c(NC3CC3)ncnc21
inactive: SK-MEL-28 > 100 µM | K562 > 100 µM | ACHN > 100 µM | SR > 100 µM | SNB-75 35.1 µM | HOP-92 > 100 µM | MCF7 > 100 µM | UACC-62 > 100 µM | A498 > 100 µM | COLO 205 > 100 µM | CCRF-CEM > 100 µM | SF-295 > 100 µM | MDA-N > 100 µM | OVCAR-8 > 100 µM | Malme-3M > 100 µM | LOX IMVI > 100 µM | NCI-H522 > 100 µM | Hs-578T > 100 µM | KM12 > 100 µM

CC(=O)C(=[N+]=[N-])C(=O)OC(C)(C)C#N
inactive: SK-MEL-28 > 10 µM | K562 > 10 µM | ACHN > 10 µM | SR > 10 µM | SNB-75 1.48 µM | HOP-92 > 10 µM | MCF7 > 10 µM | UACC-62 > 10 µM | A498 > 10 µM | COLO 205 > 10 µM | CCRF-CEM > 10 µM | SF-295 > 10 µM | MDA-N > 10 µM | OVCAR-8 > 10 µM | Malme-3M > 10 µM | LOX IMVI > 10 µM | Hs-578T > 10 µM | KM12 > 10 µM | HL-60 > 10 µM

CC1(C(=O)O)C[C@](C)(C(=O)OCc2ccccc2)C[C@](C)(C(=O)OCc2ccccc2)C1 (some centres not stated)
inactive: SK-MEL-28 50.2 µM | K562 37 µM | ACHN 22.9 µM | SR 29.1 µM | SNB-75 13.7 µM | HOP-92 19.6 µM | MCF7 34.1 µM | UACC-62 19 µM | COLO 205 18.5 µM | CCRF-CEM 34.3 µM | SF-295 21.2 µM | MDA-N 36 µM | OVCAR-8 34.5 µM | Malme-3M 63.2 µM | LOX IMVI 30.8 µM | NCI-H522 21.6 µM | Hs-578T 30.3 µM | KM12 31.2 µM | HL-60 22.4 µM

CC1=NN(C(=O)CSc2nnc(SCC(=O)N3N=C(C)CC3(O)c3ccccc3)s2)C(O)(c2ccccc2)C1 (configuration not stated)
inactive: SK-MEL-28 > 100 µM | K562 32.6 µM | ACHN 34.8 µM | SR 23.3 µM | HOP-92 33.7 µM | MCF7 35.1 µM | UACC-62 18.6 µM | A498 > 100 µM | COLO 205 32.1 µM | CCRF-CEM 18.7 µM | SF-295 42 µM | MDA-N 39.6 µM | OVCAR-8 26.9 µM | Malme-3M 99.1 µM | LOX IMVI 22.8 µM | NCI-H522 29.6 µM | Hs-578T 36.3 µM | KM12 26.7 µM

CC(=O)NN/C=N/C(C#N)=C(\N)C#N
inactive: SK-MEL-28 > 100 µM | K562 > 100 µM | ACHN > 100 µM | SR > 100 µM | SNB-75 > 100 µM | MCF7 > 100 µM | UACC-62 > 100 µM | A498 > 100 µM | COLO 205 > 100 µM | CCRF-CEM > 100 µM | SF-295 > 100 µM | MDA-N > 100 µM | OVCAR-8 > 100 µM | Malme-3M > 100 µM | LOX IMVI > 100 µM | NCI-H522 > 100 µM | Hs-578T > 100 µM | KM12 > 100 µM | HL-60 > 100 µM

Cc1cccc(C)c1NC(=O)/C=C/c1ccccc1
inactive: SK-MEL-28 > 100 µM | K562 > 100 µM | ACHN 15.4 µM | SR > 100 µM | SNB-75 31.2 µM | MCF7 > 100 µM | UACC-62 > 100 µM | A498 > 100 µM | COLO 205 > 100 µM | CCRF-CEM > 100 µM | SF-295 88.5 µM | MDA-N > 100 µM | OVCAR-8 73.1 µM | Malme-3M 51.2 µM | LOX IMVI > 100 µM | NCI-H522 18.8 µM | Hs-578T 24.6 µM | KM12 > 100 µM | HL-60 > 100 µM

COc1cccc(C23CCCC(C2)N(C)CC3OC(=O)c2ccccc2)c1OC (configuration not stated)
inactive: SK-MEL-28 28 µM | K562 18.8 µM | ACHN 32.7 µM | SR 16.2 µM | MCF7 27.4 µM | UACC-62 25.9 µM | A498 34.7 µM | COLO 205 14.1 µM | CCRF-CEM 12.5 µM | SF-295 19.4 µM | MDA-N 16 µM | OVCAR-8 16.4 µM | Malme-3M 16.6 µM | LOX IMVI 20.1 µM | NCI-H522 22.6 µM | Hs-578T 24.4 µM | KM12 22.9 µM | HL-60 10.2 µM

COc1ccc2c3c1OC1c4[nH]c5ccccc5c4CC4(O)C(C2)N(C)CCC314 (configuration not stated)
inactive: SK-MEL-28 17.4 µM | K562 15.3 µM | ACHN 20.6 µM | SR 15.2 µM | SNB-75 29.3 µM | HOP-92 14.3 µM | MCF7 21.8 µM | UACC-62 20.9 µM | A498 15.3 µM | COLO 205 18.4 µM | CCRF-CEM 24.2 µM | SF-295 82.4 µM | MDA-N 17.3 µM | OVCAR-8 66.4 µM | LOX IMVI 20.1 µM | NCI-H522 25.1 µM | Hs-578T 21.3 µM | KM12 30.3 µM

COc1nc(N)c(NC2OC(CO)C(O)C2O)c(=O)[nH]1 (configuration not stated)
inactive: SK-MEL-28 > 100 µM | K562 > 100 µM | ACHN > 100 µM | SR > 100 µM | SNB-75 > 100 µM | HOP-92 > 100 µM | MCF7 > 100 µM | UACC-62 > 100 µM | A498 > 100 µM | COLO 205 > 100 µM | CCRF-CEM > 100 µM | SF-295 > 100 µM | MDA-N > 100 µM | OVCAR-8 > 100 µM | Malme-3M > 100 µM and 75.5 µM | LOX IMVI > 100 µM | Hs-578T > 100 µM | KM12 > 100 µM | HL-60 > 100 µM
